Each structure is given as a SMILES string.

The values below come from patent publication US10954232B2, “Pyrazole derivative as ALK5 inhibitor and uses thereof” (HANMI PHARMACEUTICAL CO., LTD., priority 2016, dated 2021).

This experiment deals with T1, ALK5 kinase (Homo sapiens, UniProt P36897).
T1 construct: GST; purchased Thermo Fisher Scientific Solutions
T1 sequence (P36897 34-503): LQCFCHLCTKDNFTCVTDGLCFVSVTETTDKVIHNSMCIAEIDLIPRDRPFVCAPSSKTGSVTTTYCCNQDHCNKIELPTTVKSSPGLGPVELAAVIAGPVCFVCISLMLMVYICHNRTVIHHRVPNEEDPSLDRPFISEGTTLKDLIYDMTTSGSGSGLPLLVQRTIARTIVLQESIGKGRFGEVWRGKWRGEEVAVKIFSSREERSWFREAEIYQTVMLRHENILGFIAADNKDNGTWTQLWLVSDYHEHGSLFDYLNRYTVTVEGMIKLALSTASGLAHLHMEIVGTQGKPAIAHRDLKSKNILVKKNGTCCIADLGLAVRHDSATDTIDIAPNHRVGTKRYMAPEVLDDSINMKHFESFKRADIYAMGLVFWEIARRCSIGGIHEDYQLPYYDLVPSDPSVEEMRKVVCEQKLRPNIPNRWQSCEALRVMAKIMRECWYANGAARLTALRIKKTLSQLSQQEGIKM
Nature of the experiment: Activity inhibition test on ALK5 enzyme (LanthaScreen Eu binding kinase assay). As to conditions: kinase tracer 178, 60 minutes at room temperature. The procedure: For each of the compounds obtained in Examples 1 to 227, inhibitory activity against ALK5 kinase was measured.
For this, a LanthaScreen Eu binding kinase assay method was used, and ALK5 kinase, a kinase buffer, a kinase tracer 178, and a LanthaScreen Eu-GST binding antibody were all purchased from Thermo Fisher Scientific Solutions. Each of the compounds was made into a 10 mM DMSO solution, and diluted by 1/10 to a concentration of 1 μM to 0.0001 μM with an aqueous solution containing 4% DMSO. The test was performed in 384 well plates (well polystyrene low volume round-bottomed plates). First, 5 μL of the diluted compound solution was added, then 5 μL of the kinase/antibody mixture solution was introduced thereto, and 5 μL of the tracer was introduced thereto. Herein, these were added to each well so that the final kinase concentration became 5 nM, the final Eu-GST binding antibody concentration 2 nM, and the kinase tracer 178 concentration 10 nM, and the result was reacted in a stirrer for 60 minutes at room temperature. Then a fluorescence value was measured using a fluorescence meter (molecular device) ([…], 665 nm emission filter). Herein, as for the degree of compound activity to inhibit the kinase reaction, a phosphorylate rate was calculated from 0% to 100% with respect to a control group according to the protocol included in the kit, and a 50% inhibitory concentration (IC50) value was calculated by obtaining the x-axis concentration in the region where 50% activity was inhibited.
For orientation: Time-resolved FRET reads energy transfer from a long-lived donor to a nearby acceptor.
What is called IC50 is the concentration needed to halve the response being measured. A lower IC50 goes with higher potency. `Cc1cccc(-n2nc(C(=O)Nc3cccc(F)c3)cc2-c2ccc3ncsc3c2)n1` [Example 28, 5-(benzo[d]thiazol-6-yl)-N-(3-fluorophenyl)-1-(6-methylpyridin-2-yl)-1H-pyrazole-3-carboxyamide]: the IC50 is 4.5 nM. The compound `Cc1cccc(-n2nc(C(=O)Nc3ccc(F)cc3)cc2-c2ccc3ncsc3c2)n1` [Example 29, 5-(benzo[d]thiazol-6-yl)-N-(4-fluorophenyl)-1-(6-methylpyridin-2-yl)-1H-pyrazole-3-carboxyamide] returned a half-maximal inhibitory concentration (IC50) of 3.9 nM.

`Cc1cccc(-n2nc(C(=O)Nc3ccc(F)c(F)c3)cc2-c2ccc3ncsc3c2)n1` [Example 30, 5-(benzo[d]thiazol-6-yl)-N-(3,4-difluorophenyl)-1-(6-methylpyridin-2-yl)-1H-pyrazole-3-carboxyamide] came in with an IC50 of 5.8 nM.

`Cc1cccc(-n2nc(C(=O)Nc3ccccc3Cl)cc2-c2ccc3ncsc3c2)n1` [Example 31, 5-(benzo[d]thiazol-6-yl)-N-(2-chlorophenyl)-1-(6-methylpyridin-2-yl)-1H-pyrazole-3-carboxyamide] gave an IC50 of over 100 nM.

`Cc1cccc(-n2nc(C(=O)Nc3cccc(Cl)c3)cc2-c2ccc3ncsc3c2)n1` [Example 32, 5-(benzo[d]thiazol-6-yl)-N-(3-chlorophenyl)-1-(6-methylpyridin-2-yl)-1H-pyrazole-3-carboxyamide] displayed a concentration for half-maximal inhibition (IC50) of 10 to 100 nM.

Regarding `Cc1cccc(-n2nc(C(=O)Nc3ccc(Cl)cc3)cc2-c2ccc3ncsc3c2)n1` [Example 33, 5-(benzo[d]thiazol-6-yl)-N-(4-chlorophenyl)-1-(6-methylpyridin-2-yl)-1H-pyrazole-3-carboxyamide], the IC50 lay in the range of 10 to 100 nM. `Cc1cccc(-n2nc(C(=O)Nc3ccc(Br)cc3)cc2-c2ccc3ncsc3c2)n1` [Example 34, 5-(benzo[d]thiazol-6-yl)-N-(4-bromophenyl)-1-(6-methylpyridin-2-yl)-1H-pyrazole-3-carboxyamide] had an IC50 of 10 to 100 nM.

Consider `CSc1cccc(NC(=O)c2cc(-c3ccc4ncsc4c3)n(-c3cccc(C)n3)n2)c1` [Example 35, 5-(benzo[d]thiazol-6-yl)-1-(6-methylpyridin-2-yl)-N-(3-(methylthio)phenyl)-1H-pyrazole-3-carboxyamide], for which the half-maximal inhibitory concentration (IC50) was in the range of 10 to 100 nM. To `CSc1ccc(NC(=O)c2cc(-c3ccc4ncsc4c3)n(-c3cccc(C)n3)n2)cc1` [Example 36, 5-(benzo[d]thiazol-6-yl)-1-(6-methylpyridin-2-yl)-N-(4-(methylthio)phenyl)-1H-pyrazole-3-carboxyamide] belongs under 10 nM; to `Cc1cccc(-n2nc(C(=O)Nc3ccc(SC4CC4)cc3)cc2-c2ccc3ncsc3c2)n1` [Example 37, 5-(benzo[d]thiazol-6-yl)-N-(4-(cyclopropylthio)phenyl)-1-(6-methylpyridin-2-yl)-1H-pyrazole-3-carboxyamide], 40 nM; to `Cc1cccc(-n2nc(C(=O)Nc3cccc([S+](C)[O-])c3)cc2-c2ccc3ncsc3c2)n1` (stereo not drawn) [Example 38, 5-(benzo[d]thiazol-6-yl)-1-(6-methylpyridin-2-yl)-N-(3-(methylsulfinyl)phenyl)-1H-pyrazole-3-carboxyamide], 1.8 nM. The compound `Cc1cccc(-n2nc(C(=O)Nc3ccc([S+](C)[O-])cc3)cc2-c2ccc3ncsc3c2)n1` (stereo not drawn) [Example 39, 5-(benzo[d]thiazol-6-yl)-1-(6-methylpyridin-2-yl)-N-(4-(methylsulfinyl)phenyl)-1H-pyrazole-3-carboxyamide] gave a 50% inhibitory concentration (IC50) of 2.4 nM. The result for `Cc1cccc(-n2nc(C(=O)Nc3cccc(S(C)(=O)=O)c3)cc2-c2ccc3ncsc3c2)n1` [Example 40, 5-(benzo[d]thiazol-6-yl)-1-(6-methylpyridin-2-yl)-N-(3-(methylsulfonyl)phenyl)-1H-pyrazole-3-carboxyamide] reads 3.3 nM; that for `Cc1cccc(-n2nc(C(=O)Nc3ccc(S(C)(=O)=O)cc3)cc2-c2ccc3ncsc3c2)n1` [Example 41, 5-(benzo[d]thiazol-6-yl)-1-(6-methylpyridin-2-yl)-N-(4-(methylsulfonyl)phenyl)-1H-pyrazole-3-carboxyamide], 5.2 nM. The result for `CCCS(=O)(=O)c1ccc(NC(=O)c2cc(-c3ccc4ncsc4c3)n(-c3cccc(C)n3)n2)cc1` [Example 42, 5-(benzo[d]thiazol-6-yl)-1-(6-methylpyridin-2-yl)-N-(4-(propylsulfonyl)phenyl)-1H-pyrazole-3-carboxyamide] reads 2.2 nM. To `Cc1cccc(-n2nc(C(=O)Nc3ccc(S(=O)(=O)C4CC4)cc3)cc2-c2ccc3ncsc3c2)n1` [Example 43, 5-(benzo[d]thiazol-6-yl)-N-(4-(cyclopropylsulfonyl)phenyl)-1-(6-methylpyridin-2-yl)-1H-pyrazole-3-carboxyamide] belongs 4.4 nM. With `Cc1cccc(-n2nc(C(=O)Nc3ccc(S(C)(=O)=O)cc3F)cc2-c2ccc3ncsc3c2)n1` [Example 44, 5-(benzo[d]thiazol-6-yl)-N-(2-fluoro-4-(methylsulfonyl)phenyl)-1-(6-methylpyridin-2-yl)-1H-pyrazole-3-carboxyamide], the IC50 amounted to 13 nM. To `Cc1cccc(-n2nc(C(=O)Nc3cccc(S(N)(=O)=O)c3)cc2-c2ccc3ncsc3c2)n1` [Example 45, 5-(benzo[d]thiazol-6-yl)-1-(6-methylpyridin-2-yl)-N-(3-sulfamoylphenyl)-1H-pyrazole-3-carboxyamide] belongs 2.4 nM. As for `Cc1cccc(-n2nc(C(=O)Nc3ccc(S(N)(=O)=O)cc3)cc2-c2ccc3ncsc3c2)n1` [Example 46], the 50% inhibitory concentration (IC50) was determined as 1.3 nM. To `CNS(=O)(=O)c1cccc(NC(=O)c2cc(-c3ccc4ncsc4c3)n(-c3cccc(C)n3)n2)c1` [Example 47, 5-(benzo[d]thiazol-6-yl)-1-(6-methylpyridin-2-yl)-N-(3-(N-methylsulfamoyl)phenyl)-1H-pyrazole-3-carboxyamide] belongs 1.2 nM; to `CNS(=O)(=O)c1ccc(NC(=O)c2cc(-c3ccc4ncsc4c3)n(-c3cccc(C)n3)n2)cc1` [Example 48, 5-(benzo[d]thiazol-6-yl)-1-(6-methylpyridin-2-yl)-N-(4-(N-methylsulfamoyl)phenyl)-1H-pyrazole-3-carboxyamide], 4.1 nM. `Cc1cccc(-n2nc(C(=O)Nc3cccc(S(=O)(=O)NC4CC4)c3)cc2-c2ccc3ncsc3c2)n1` [Example 49, 5-(benzo[d]thiazol-6-yl)-N-(3-(N-cyclopropylsulfamoyl)phenyl)-1-(6-methylpyridin-2-yl)-1H-pyrazole-3-carboxyamide] registered an IC50 of 5.6 nM.

For `Cc1cccc(-n2nc(C(=O)Nc3ccc(S(=O)(=O)NC4CC4)cc3)cc2-c2ccc3ncsc3c2)n1` [Example 50, 5-(benzo[d]thiazol-6-yl)-N-(4-(N-cyclopropylsulfamoyl)phenyl)-1-(6-methylpyridin-2-yl)-1H-pyrazole-3-carboxyamide], the IC50 came to 6.6 nM.

Compound `Cc1cccc(-n2nc(C(=O)Nc3cccc(S(=O)(=O)N(C)C)c3)cc2-c2ccc3ncsc3c2)n1` [Example 51, 5-(benzo[d]thiazol-6-yl)-N-(3-(N,N-dimethylsulfamoyl)phenyl)-1-(6-methylpyridin-2-yl)-1H-pyrazole-3-carboxyamide] displayed an IC50 of 6.5 nM.
